Test results published in patent US20130225548A1, “Pyridine Derivative and Medicinal Agent” (NIPPON SHINYAKU CO., LTD., priority 2010, published 2013).
pIC50: −log10 of the molar value. Where a name gives a salt, the structure may show the parent alone.

target: T1, Syk tyrosine kinase (Homo sapiens, UniProt P43405); assay: Test for Syk tyrosine kinase inhibitory activity (ELISA); assay type: biochemical; conditions: Syk tyrosine kinase (Carna Biosciences), 25 μM ATP in substrate solution, 30° C. 1 hour, n=2; read-out: Evaluation (IC50, concentration inhibiting the tyrosine kinase activity at 50%)
T1 construct: purchased Carna Biosciences, Inc
Summary of the method: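 Syk kinase (0.025 nM stock before addition) with 625 nM biotinylated peptide and 25 μM ATP (substrate-solution levels) in Tris pH 7.5, MgCl2, DTT; 1 h at 30 °C on streptavidin plates. Phosphotyrosine detected by HRP anti-pTyr antibody, TMB, A450; IC50 by non-linear regression.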

| Compound | pIC50 |
| --- | --- |
| N#Cc1ccnc(Nc2cc(C3CC3)cc(-c3ccc4c(c3)ncn4CCO)n2)c1 [Example 147, 2-({4-cyclopropyl-6-[1-(2-hydroxyethyl)-1H-benzimidazol-5-yl]pyridin-2-yl}amino)pyridine-4-carbonitrile hydrochloride] | 6.30 to 7.30 |
| COCCn1cnc2cc(-c3cc(C4CC4)cc(Nc4cc(C#N)ccn4)n3)ccc21 [Example 148, hydrochloride] | 6.30 to 7.30 |
| CCn1cnc2cc(-c3cc(C4CC4)cc(Nc4cc(C#N)ccn4)n3)ccc21 [Example 149, 2-{[4-cyclopropyl-6-(1-ethyl-1H-benzimidazol-5-yl)pyridin-2-yl]amino}pyridine-4-carbonitrile hydrochloride] | 6.30 to 7.30 |
| N#Cc1ccnc(Nc2cc(C3CC3)cc(-c3ccc4c(c3)ncn4C3CC3)n2)c1 [Example 150, 2-{[4-cyclopropyl-6-(1-cyclopropyl-1H-benzimidazol-5-yl)pyridin-2-yl]amino}pyridin-4-carbonitrile hydrochloride] | 6.30 to 7.30 |
| CC(=O)NCCn1cnc2cc(-c3cc(C4CC4)cc(Nc4cc(C#N)ccn4)n3)ccc21 [Example 151, N-[2-(5-{6-[(4-cyanopyridin-2-yl)amino]-4-cyclopropylpyridin-2-yl}-1H-benzimidazol-1-yl)ethyl]acetamide hydrochloride] | 7.30 to 8.30 |
| Cn1cnc2ccc(-c3cc(C4CC4)cc(Nc4cc(C#N)ccn4)n3)cc21 [Example 153, 2-{[4-cyclopropyl-6-(1-methyl-1H-benzimidazol-6-yl)pyridin-2-yl]amino}pyridine-4-carbonitrile hydrochloride] | 7.30 to 8.30 |
| N#Cc1ccnc(Nc2cc(C3CC3)cc(-c3ccc(CN4CCCN(C(N)=O)CC4)nc3)n2)c1 [Example 154, 4-({6-[(4-cyanopyridin-2-yl)amino]-4-cyclopropyl-2,3′-bipyridin-6′-yl}methyl)-1,4-diazepane-1-carboxamide hydrochloride] | 6.30 to 7.30 |
| Cc1cc(N2CCS(=O)(=O)CC2)ncc1-c1cc(C2CC2)cc(Nc2cc(C#N)ccn2)n1 [Example 155, 2-{[4-cyclopropyl-6′-(1,1-dioxidethiomorpholin-4-yl)-4′-methyl-2,3′-bipyridin-6-yl]amino}pyridine-4-carbonitrile hydrochloride] | 7.30 to 8.30 |
| N#Cc1ccnc(Nc2cc(C3CC3)cc(-c3ccc4[nH]c(=O)n([C@H]5CC[C@H](O)CC5)c4c3)n2)c1 [Example 156, 2-({4-cyclopropyl-6-[3-(trans-4-hydroxycyclohexyl)-2oxo-2,3-dihydro-1H-benzimidazol-5-yl]pyridin-2-yl}amino)pyridine-4-carbonitrile hydrochloride] | > 8.30 |
| N#Cc1ccnc(Nc2cc(C3CC3)cc(-c3ccc4ccnc(N5CCNC(=O)C5)c4c3)n2)c1 [Example 158, 2-({4-cyclopropyl-6-[1-(3-oxopiperazin-1-yl)isoquinolin-7-yl]pyridin-2-yl}amino)pyridine-4-carbonitrile hydrochloride] | > 8.30 |
| Cc1nc2ccc(-c3cc(C4CC4)cc(Nc4cc(C#N)ccn4)n3)cc2n1[C@H]1CC[C@H](O)CC1 [Example 159, 2-({4-cyclopropyl-6-[1-trans-4-hydroxycylohexyl)-2-methyl-1H-benzimidazol-6-yl]pyridin-2-yl}amino)pyridine-4-carbonitrile hydrochloride] | > 8.30 |
| CC(C)c1nc2ccc(-c3cc(C4CC4)cc(Nc4cc(C#N)ccn4)n3)cc2n1[C@H]1CC[C@H](O)CC1 [Example 161, 2-({4-cyclopropyl-6-[1-(trans-4-hydroxycyclohexyl)-2-(propan-2-yl)-1H-benzimidazol-6-yl]pyridin-2-y}amino)pyridine-4-carbonitrile hydrochloride] | > 8.30 |
| N#Cc1ccnc(Nc2cc(C3CC3)cc(-c3ccc4nc(CO)n([C@H]5CC[C@H](O)CC5)c4c3)n2)c1 [Example 162, 2-({4-cyclopropyl-6-[1-(trans-4-hydroxycyclohexyl)-2-(hydroxymethyl)-1H-benzimidazol-6-yl]pyridin-2-yl}amino)pyridine-4-carbonitrile hydrochloride] | > 8.30 |
| N#Cc1ccnc(Nc2cc(C3CC3)cc(-c3ccc4ccnc(N5CCNCC5)c4c3)n2)c1 [Example 163, 2-({4-cyclopropyl-6-[1-(piperazin-1-yl)isoquinolin-7-yl]pyridin-2-yl}amino)pyridine-4-carbonitrile hydrochloride] | 7.30 to 8.30 |
| N#Cc1ccnc(Nc2cc(C3CC3)cc(-c3ccc4ccnc(N5CCC(O)CC5)c4c3)n2)c1 [Example 164, 2-({4-cyclopropyl-6-[1-(4-hydroxypiperidin-1-yl)isoquinolin-7-yl]pyridin-2-yl}amino)pyridine-4-carbonitrile hydrochloride] | 7.30 to 8.30 |
| N#Cc1ccnc(Nc2cc(C3CC3)cc(-c3ccc4ccnc(N5CC[C@@H](O)C5)c4c3)n2)c1 [Example 165, 2-[(4-cyclopropyl-6-{1-[(3R)-3-hydroxypyrrolidin-1-]isoquinolin-7-yl}pyridin-2-yl)amino]pyridine-4-carbonitrile hydrochloride] | 7.30 to 8.30 |
| N#Cc1ccnc(Nc2cc(C3CC3)cc(-c3ccc4ccnc(N5CC(O)C5)c4c3)n2)c1 [Example 166, 2-({4cyclopropyl-6-[1-(3-hydroxyazetidin-1-yl)isoquinolin-7-yl]pyridin-2-yl}amino)pyridine-4-carbonitrile hydrochloride] | 7.30 to 8.30 |
| N#Cc1ccnc(Nc2cc(C3CC3)cc(-c3ccc4ccnc(N5CCC[C@H]5CO)c4c3)n2)c1 [Example 167, 2-[(4-cyclopropyl-6-{1-[(2S)-2-(hydroxymethyl)pyrrolidin-1-yl]isoquinolin-7-yl}pyridin-2-yl)amino]pyridine-4-carbonitrile hydrochloride] | 7.30 to 8.30 |
| N#Cc1ccnc(Nc2cc(C3CC3)cc(-c3ccc4ccnc(N5CC[C@@H](F)C5)c4c3)n2)c1 [Example 168, 2-[(4-cyclopropyl-6-{1-[(3R)-3-fluoropyrrolidin-1-yl]isoquinolin-7-yl}-pyridin-2-yl)amino]pyridine-4-carbonitrile hydrochloride] | 6.30 to 7.30 |
| N#Cc1ccnc(Nc2cc(C3CC3)cc(-c3ccc4ccnc(N5CC[C@@H](N)C5)c4c3)n2)c1 [Example 169, hydrochloride] | 7.30 to 8.30 |
| N#Cc1ccnc(Nc2cc(C3CC3)cc(-c3ccc4ccnc(N5CCNC5=O)c4c3)n2)c1 [Example 171, 2-({4-cyclopropyl-6-[1-(2-oxo-imidazolidin-1-yl)isoquinolin-7-yl]pyridin-2-yl}amino)pyridine-4-carbonitrile hydrochloride] | 7.30 to 8.30 |
| N#Cc1ccnc(Nc2cc(C3CC3)cc(-c3ccc4ncn([C@H]5CC[C@H](N)CC5)c4c3)n2)c1 [Example 172, 2-({6-[1-(trans-4-aminocyclohexyl)-1H-benzimidazol-6-yl]-4-cyclopropylpyridin-2-yl}amino)pyridine-4-carbonitrile hydrochloride] | 7.30 to 8.30 |
| N#Cc1ccnc(Nc2cc(C3CC3)cc(-c3ccc4ncn(C5CCNCC5)c4c3)n2)c1 [Example 173, hydrochloride] | > 8.30 |
| N#Cc1ccnc(Nc2cc(C3CC3)cc(-c3ccc4ncn(Cc5ccc(=O)[nH]c5)c4c3)n2)c1 [Example 174, 2-({4-cyclopropyl-6-[1-[(6-oxo-1,6-dihydropyridin-3-yl)methyl]-1H-benzimidazol-6-yl}pyridin-2-yl)amino]pyridine-4-carbonitrile hydrochloride] | 7.30 to 8.30 |
| N#Cc1ccnc(Nc2cc(C3CC3)cc(-c3ccc4nc([C@H]5CC[C@H](O)CC5)[nH]c4c3)n2)c1 [Example 175, 2-({4-cyclopropyl-6-[2-(trans-4-hydroxycyclohexyl)-1H-benzimidazol-6-yl]pyridin-2-yl}amino)pyridine-4-carbonitrile hydrochloride] | 6.30 to 7.30 |
| N#Cc1ccnc(Nc2cc(C3CC3)cc(-c3ccc4ncn([C@H]5CC[C@H](C#N)CC5)c4c3)n2)c1 [Example 176, 2-({6-[1-(trans-4-cyanocyclohexyl)-1H-benzimidazol-6-yl]-4-cyclopropylpyridin-2-yl}amino)pyridine-4-carbonitrile hydrochloride] | 7.30 to 8.30 |
| N#Cc1ccnc(Nc2cc(C3CC3)cc(-c3cnc(N4CCS(=O)(=O)CC4)c(F)c3)n2)c1 [Example 177, 2-{[4-cyclopropyl-6′-(1,1-dioxidethiomorpholin-4-yl)-5′-fluoro-2,3′-bipyridin-6-yl]amino}pyridine-4-carbonitrile hydrochloride] | 7.30 to 8.30 |
